Source: US20250109139A1, “TRICYCLIC COMPOUND, AND PREPARATION METHOD THEREFOR AND USE THEREOF” (SHANGHAITECH UNIVERSITY, priority 2022, published 2025)

Columns and labels:
[1] = molecular target: T1, 5-hydroxytryptamine 1A (5-HT1A) receptors (Homo sapiens (Human), UniProt P08908); assay: 5-HT1A receptor β-arrestin2 BRET (recruitment); format: cell-based; conditions: for Emax: relative to endogenous ligand 5-hydroxytryptamine
Method: At the same time, in order to examine the downstream β-arrestin2 signaling pathway mediated by 5-HT1A receptors, on the first day, a 6 cm culture dish was used for transfection with 500 ng of 5-HT1A receptors containing C-terminal seaweed luciferase (5HT1AR-Rluc), 500 ng of G protein-coupled receptor kinase 2 (GRK2), 2500 ng of β-arrestin2 containing N-terminal green fluorescent protein (GFP2-ARRB2), and 14 μL of PEI. The next day, the confluent cells of a 6 cm culture dish were digested and reseeded into a 96-well plate with 100 μL of culture medium added to each well. On the third day, the drugs were added for test. The 96-well plate was taken out from the cell incubator to decant the culture medium, 40 µL of the substrate coelenterazine 400a (final concentration of 5 μM) was added to each well, and then 20 μL of different drugs were added sequentially from left to right to ensure that the final concentration of the drug decreased gradually from bottom to top, with two replicates per treatment. Finally, the prepared samples were loaded on machine for test. The machine readout value reflected the recruitment of β-arrestin2 to the membrane or the dissociation of G protein trimer. The former indicated the degree of activation of the β-arrestin2 signaling pathway downstream of the 5-HT1 serotonin 1A receptors, and the latter indicated the degree of activation of the G protein signaling pathway downstream of the serotonin 1A receptors.

[2] = molecular target: 5-HT2A receptors (Homo sapiens (Human), UniProt P28223); assay: 5-HT2A receptor radioligand competition binding assay ([3H]-ketanserin); conditions: for Ki: read-out: Ki
Chain of 5-HT2A receptors (P28223 whole entry): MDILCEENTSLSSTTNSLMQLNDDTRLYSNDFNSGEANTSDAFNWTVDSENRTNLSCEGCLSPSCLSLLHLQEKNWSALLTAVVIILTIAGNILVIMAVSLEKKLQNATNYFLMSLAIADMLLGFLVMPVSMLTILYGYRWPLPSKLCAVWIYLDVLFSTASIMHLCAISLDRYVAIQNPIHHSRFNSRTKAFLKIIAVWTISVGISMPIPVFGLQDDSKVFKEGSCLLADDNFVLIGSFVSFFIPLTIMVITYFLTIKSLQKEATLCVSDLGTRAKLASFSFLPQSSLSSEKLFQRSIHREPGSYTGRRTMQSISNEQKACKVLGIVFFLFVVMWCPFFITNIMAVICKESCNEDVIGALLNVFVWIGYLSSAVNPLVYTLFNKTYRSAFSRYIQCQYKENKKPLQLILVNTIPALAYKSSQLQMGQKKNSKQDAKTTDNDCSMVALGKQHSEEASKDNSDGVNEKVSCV
Method: The affinity of the compounds of the present disclosure for 5-HT2A receptors was determined by a radioligand competition binding assay. In the first step, a cell membrane component containing specific 5-HT2A receptor was prepared. A 10 cm dish was used for transfection with […] of 5-HT2A receptors and 40 μL of PEI. After 48 hours, the 10 cm dish was taken out from the cell incubator and the cultured cells had expressed the 5-HT2A receptors. A vacuum pump was used to suck off the culture medium, 3 mL of lysis buffer was added to each culture dish, and the cells were placed in a 4° C. cold room for 10 minutes. After the cells were detached, the cells were transferred to a 15 mL centrifuge tube and centrifuged at 1500 rpm for 5 minutes at 4° C., and the supernatant was discarded. The cell pellet was transferred to a tissue homogenizer, and 3 mL of lysis buffer was added and fully ground until the cells were broken. Then, cell suspension was equally aliquoted into several EP tubes, centrifuged at 12000 rpm for 5 minutes at 4° C., and the supernatant was discarded. The precipitate was the cell membrane component containing the 5-HT2A receptors. […] First, a standard binding buffer was added to the cell membrane component containing the 5-HT2A receptors, and the cell membrane was disrupted and resuspended with an electric tissue homogenizer. 30 μL of membrane protein suspension was added to each well of a 96-well plate. Then, 30 μL of different drugs were added to the 96-well plate sequentially from bottom to top to ensure that the final drug concentrations were 10^−5 M, 10^−6 M, 10^−7 M, 10^−8 M, 10^−9 M, and 0 M, with two replicates per treatment. Next, 30 μL of [^3H]-ketanserin was added to each well of the 96-well plate. The plate was incubated at room temperature in the dark for 2 hours. Detection was conducted. The machine readout value reflected the amount of [^3H]-ketanserin bound on the membrane, and after further data processing, the affinity Ki values of different compounds for the 5-HT2A receptors were obtained.

[3] = test system: MK801-induced hyperlocomotion in mice; assay: Open field test, MK801-induced hyperlocomotion (schizophrenia-like model); format: in vivo, C57B6 male mice
Method: Experimental method: The experimental animals were C57B6 male mice, n=8 in each group. In this model, C57B6 mice were used as experimental animals. Hyperlocomotion of the mice in open field was induced by acute injection of a NMDA antagonist MK801, and modeled to test the inhibitory effect of different compounds on hyperlocomotion phenotype induced by MK801 All mouse behavior experiments were carried out during the light period. The whole process was recorded by the camera, and locomotive data were tracked and analyzed by behavioral tracking software. The compounds were administered intraperitoneally. Immediately after the injection, the mice entered the open field and their movement trajectories were recorded by the camera. After 30 minutes, the mice received 0.2 mg/kg of MK801 by intraperitoneal injection and returned to the open field immediately after administration, and the movement trajectories were further recorded for 120 minutes. The accumulative travelled distance of the mice was counted in a 5-minute bin. Data statistics were performed using Student-t-test analysis, *p<0.05, **p<0.01, ***p<0.001, ****p<0.0001. The total travelled distance of the mice in the 0-45 minute interval after administration of the compounds of the present disclosure at different doses in combination with MK801 (0.2 mg/kg) is shown in Table 10.

[4] = molecular target: T1, 5-hydroxytryptamine 1A (5-HT1A) receptors; assay: 5-HT1A receptor radioligand competition binding assay ([3H]-LSD); conditions: 293T membranes, read-out: Affinity Ki
Method: The affinity of the compounds of the present disclosure for 5-hydroxytryptamine 1A (5-HT1A) receptors was determined by a radioligand competition binding assay.
In the first step, a cell membrane component containing specific 5-HT1A receptors was prepared. […] A vacuum pump was used to suck off the culture medium, 3 mL of lysis buffer was added to each culture dish, and the cells were placed in a 4° C. cold room for 10 minutes. After the cells were detached, the cells were transferred to a 15 mL centrifuge tube and centrifuged at 1500 rpm for 5 minutes at 4° C., and the supernatant was discarded. The cell pellet was transferred to a tissue homogenizer, and 3 mL of lysis buffer was added and fully ground until the cells were broken. Then, cell suspension was equally aliquoted into several EP tubes, centrifuged at 12000 rpm for 5 minutes at 4° C., and the supernatant was discarded. The precipitate was the cell membrane component containing the 5-HT1A receptors.
First, a standard binding buffer was added to the cell membrane component containing the 5-HT1A receptors, and the cell membrane was disrupted and resuspended with an electric tissue homogenizer. 30 μL of membrane protein suspension was added to each well of a 96-well plate. Then, 30 μL of different drugs were added to the 96-well plate sequentially from bottom to top to ensure that the final drug concentrations were 10^−5 M, 10^−6 M, 10^−7 M, 10^−8 M, 10^−9 M, and 0 M, with two replicates per treatment. Next, 30 μL of [^3H]-LSD was added to each well of the 96-well plate. The plate was incubated at room temperature in the dark for 2 hours. Detection was conducted. The machine readout value reflected the amount of [^3H]-LSD bound on the membrane, and after further data processing, the binding affinity Ki values of different compounds for the 5-HT1A receptors were obtained.

[5] = molecular target: T2, dopamine D2 receptors (Homo sapiens (Human), UniProt P14416); assay: Dopamine D2 receptor β-arrestin2 BRET (recruitment); format: cell-based; conditions: for Emax: relative to endogenous ligand dopamine, read-out: β-arrestin2 BRET Emax % ± SEM; for EC50: unit printed only in Cariprazine cell, read-out: β-arrestin2 BRET EC50
T2 sequence (P14416 whole entry): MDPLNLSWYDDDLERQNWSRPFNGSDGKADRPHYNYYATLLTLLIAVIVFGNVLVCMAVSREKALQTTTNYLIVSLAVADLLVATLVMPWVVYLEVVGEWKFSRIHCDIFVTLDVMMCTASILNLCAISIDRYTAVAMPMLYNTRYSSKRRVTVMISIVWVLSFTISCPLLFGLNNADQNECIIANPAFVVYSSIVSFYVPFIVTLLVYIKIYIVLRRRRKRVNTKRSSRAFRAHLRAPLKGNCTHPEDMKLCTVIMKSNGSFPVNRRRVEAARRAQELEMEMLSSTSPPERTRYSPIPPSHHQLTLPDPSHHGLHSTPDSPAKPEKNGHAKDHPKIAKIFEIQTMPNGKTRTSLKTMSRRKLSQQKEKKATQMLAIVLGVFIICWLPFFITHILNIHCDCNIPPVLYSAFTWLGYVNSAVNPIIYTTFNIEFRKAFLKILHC
Method in brief: (§1)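 G-protein assay: cells co-transfected with D2 receptor, Gαi1-Rluc, Gβ3 and Gγ9-GFP (1 μg each); β-arrestin2 assay: D2-Rluc, GRK2 and GFP2-β-arrestin2 co-transfected. Cells were reseeded after one day and tested on day three. Drug dilution series were added in duplicate with coelenterazine 400a (5 μM final), and the BRET signal was read.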

[6] = molecular target: T2, dopamine D2 receptors; assay: Dopamine D2 receptor Gαi1 BRET (G protein trimer dissociation); format: cell-based; conditions: for Emax: relative to endogenous ligand dopamine, read-out: Gαi1 BRET Emax % ± SEM; for EC50: unit printed only in Cariprazine cell, read-out: Gαi1 BRET EC50
Method in brief: as §1

[7] = molecular target: T1, 5-hydroxytryptamine 1A (5-HT1A) receptors; assay: 5-HT1A receptor Gαi1 BRET (G protein trimer dissociation); format: cell-based; conditions: relative to endogenous ligand 5-hydroxytryptamine
[8] = molecular target: T2, dopamine D2 receptors; assay: Dopamine D2 receptor radioligand competition binding assay ([3H]-Methylspiperone); conditions: [3H]-Methylspiperone 0.3 to 0.5 nM, 293T membranes; read-out: Affinity Ki
Method in brief: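 Membranes from cells transfected with human D2 receptor, PEI-mediated; competition with [3H]-methylspiperone for 2 h at room temperature in the dark.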

[9] = [3H]-ketanserin, 293T membranes

T1 sequence (P08908 whole entry): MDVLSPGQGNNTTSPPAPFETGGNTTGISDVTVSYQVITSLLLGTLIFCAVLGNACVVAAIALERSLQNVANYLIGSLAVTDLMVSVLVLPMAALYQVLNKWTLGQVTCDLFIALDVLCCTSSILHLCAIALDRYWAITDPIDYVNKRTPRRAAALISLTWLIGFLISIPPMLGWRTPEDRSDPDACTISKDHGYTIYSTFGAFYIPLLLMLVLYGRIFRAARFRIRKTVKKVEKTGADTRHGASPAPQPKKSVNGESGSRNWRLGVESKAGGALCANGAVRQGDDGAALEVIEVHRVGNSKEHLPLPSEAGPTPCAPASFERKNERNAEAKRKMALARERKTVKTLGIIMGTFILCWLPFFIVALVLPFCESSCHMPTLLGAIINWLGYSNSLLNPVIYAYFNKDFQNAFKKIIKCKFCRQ

SMILES	Ki [4]	Emax [5]	EC50 [5]	Emax [7]	Emax [1]	other results
CN(C)C(=O)N[C@H]1CC[C@H](CCN2CCN(c3cccc(Cl)c3Cl)CC2)CC1 [Cariprazine, reference compound]						β-arrestin2 BRET EC50 [1]: Inactive
COc1cccc2c3c(oc12)CN(CCCCOc1ccc2c(c1)NC(=O)CC2)CC3 [I-A2, 7-(4-(8-methoxy-3,4-dihydrobenzofuro[2,3-c]pyridin-2(1H)-yl)butoxy)-3,4-dihydroquinolin-2(1H)-one]						affinity for 5-HT2A receptors (in words) [2]: very weak affinity; pKi ± SEM [2, 9]: (5.95 ± 0.05); Ki [2, 9]: 1110 nM; Distance travelled in 45 minutes ([3]; MK801 0.2 mg/kg + compound 1 mg/kg i.p.): 8795.03 cm; Distance travelled in 45 minutes ([3]; MK801 0.2 mg/kg + compound 4 mg/kg i.p.): 6152.62 cm; Distance travelled in 45 minutes ([3]; MK801 0.2 mg/kg + compound 16 mg/kg i.p.): 3028.99 cm
CCOc1cccc2c3c(oc12)CN(CCc1ccc2ccc(=O)[nH]c2c1)CC3 [I-A27, 7-(2-(8-ethoxy-3,4-dihydrobenzofuro[2,3-c]pyridin-2(1H)-yl)ethyl)quinolin-2(1H)-one]	0.64 nM	101%	55 nM	64.1%		Emax [6]: 57%; EC50 [6]: 45.2 nM
CCOc1cccc2c3c(oc12)CN(CCCCOc1ccc2ccc(=O)[nH]c2n1)CC3 [I-A29, 7-(4-(8-ethoxy-3,4-dihydrobenzofuro[2,3-c]pyridin-2(1H)-yl)butoxy)-1,8-naphthyridin-2(1H)-one]		47%	10.1 nM	90.3%	8.46%	affinity for 5-HT2A receptors (in words) [2]: very weak affinity; Ki [2, 9]: 5520 nM; Emax [6]: 40%; EC50 [6]: 33.1 nM; Ki [8]: 27.7 nM
CCOc1cccc2c3c(oc12)CN(CCNC(=O)C1CCCC1)CC3 [I-A33, N-(2-(8-ethoxy-3,4-dihydrobenzofuro[2,3-c]pyridin-2(1H)-yl)ethyl)cyclopentanecarboxamide]		18%	56.7 nM	96.7%	25.2%	
CCOc1cccc2c3c(oc12)CN(CCNC(=O)c1ccccc1)CC3 [I-A35, N-(2-(8-ethoxy-3,4-dihydrobenzofuro[2,3-c]pyridin-2(1H)-yl)ethyl)benzamide]		17%	3.17 nM	102%	39.8%	
CCOc1cccc2c3c(oc12)CN(CCNC(=O)c1cccs1)CC3 [I-A36, N-(2-(8-ethoxy-3,4-dihydrobenzofuro[2,3-c]pyridin-2(1H)-yl)ethyl)thiophene-2-carboxamide]		12%	0.75 nM	100%	38.7%	
CCOc1cccc2c3c(oc12)CN(CCN1CCc2nn(C)c(C)c2C1=O)CC3 [I-A39, 5-(2-(8-ethoxy-3,4-dihydrobenzofuro[2,3-c]pyridin-2(1H)-yl)ethyl)-2,3-dimethyl-2,5,6,7-tetrahydro-4H-pyrazolo[4,3-c]pyridin-4-one]				82.2%	20.6%	
CCOc1cccc2c3c(oc12)CN(CCN1CCCc2ccccc2C1=O)CC3 [I-A40, 2-(2-(8-ethoxy-3,4-dihydrobenzofuro[2,3-c]pyridin-2(1H)-yl)ethyl)-2,3,4,5-tetrahydro-1H-benzo[c]azepin-1-one]				101%	28.9%	
CCOc1cccc2c3c(oc12)CN(CCN1CCCc2c(ccn2C)C1=O)CC3 [I-A41, 5-(2-(8-ethoxy-3,4-dihydrobenzofuro[2,3-c]pyridin-2(1H)-yl)ethyl)-1-methyl-5,6,7,8-tetrahydropyrrolo[3,2-c]azepin-4(1H)-one]	0.78 nM			98.8%	14.3%	
CCOc1cccc2c3c(oc12)CN(CCN1CCCc2c(cnn2C)C1=O)CC3 [I-A42, 5-(2-(8-ethoxy-3,4-dihydrobenzofuro[2,3-c]pyridin-2(1H)-yl)ethyl)-1-methyl-5,6,7,8-tetrahydropyrazolo[4,3-c]azepin-4(1H)-one]	0.42 nM			101%	21%	
CCOc1cccc2c3c(oc12)CN(CCCCn1ncc(=O)n(C)c1=O)CC3 [I-A43, 2-(4-(8-ethoxy-3,4-dihydrobenzofuro[2,3-c]pyridin-2(1H)-yl)butyl)-4-methyl-1,2,4-triazine-3,5(2H,4H)-dione]	0.015 nM	21%	48.8 nM	84.3%		
COc1cccc2c1cc1n2CCN(CCNC(=O)C2CCOCC2)C1 [I-C8, N-(2-(9-methoxy-3,4-dihydropyrazino[1,2-a]indol-2(1H)-yl)ethyl)tetrahydro-2H-pyran-4-carboxamide]				81%	79%	Ki [8]: 239 nM
